The source made the active and inactive calls. No cut-off for these calls is given here.
Experiments:
[1] = molecular target: T1, Lysine-specific histone demethylase 1A (Homo sapiens, UniProt O60341); experiment: Inhibition of LSD1 in human A549 cells assessed as increase in H3K4me2 protein level at 1 to 4 uM incubated for 72 hrs by Western blotting assay; assay type: cell-based; conditions: dose 1-4 µM
A549 [2] = experiment: Antitumor activity against human A549 cells xenografted in BALB/c mouse assessed as reduction in KI67 positive cells at 10 mg/kg,ip administrated for 15 days; assay type: functional, organism-based; conditions: time 15.0 day
[3] = Toxicity in BALB/c mouse xenografted with human A549 cells assessed as change in body weight at 20 mg/kg,ip administrated for 15 days; assay type: organism-based; conditions: in vivo, 360 h, time 15 day
[4] = molecular target: T1, Lysine-specific histone demethylase 1A; experiment: Inhibition of LSD1 (unknown origin) assessed as inhibition constant using H3K4me2 as substrate by Lineweaver-Burk plot analysis
CYP2C19 = CYP2C19 (Homo sapiens, UniProt P33261); experiment: Inhibition of CYP2C19 (unknown origin) at 10 uM incubated for 20 mins in presence of NADPH by LC/MS/MS analysis relative to control; assay type: ADME
in vitro = conditions: human, THLE-2 cells
Description: Antiproliferative activity against human THLE-2 cells assessed as inhibition of cell growth incubated for 72 hrs by CCK-8 assay

A549 [5] = experiment: Induction of apoptosis in human A549 cells assessed as downregulation of AKT phosphorylation incubated for 72 hrs by Western blotting assay; assay type: functional, cell-based
[6] = molecular target: T2, Amine oxidase [flavin-containing] B (Homo sapiens, UniProt P27338)
T2 sequence (P27338 whole entry): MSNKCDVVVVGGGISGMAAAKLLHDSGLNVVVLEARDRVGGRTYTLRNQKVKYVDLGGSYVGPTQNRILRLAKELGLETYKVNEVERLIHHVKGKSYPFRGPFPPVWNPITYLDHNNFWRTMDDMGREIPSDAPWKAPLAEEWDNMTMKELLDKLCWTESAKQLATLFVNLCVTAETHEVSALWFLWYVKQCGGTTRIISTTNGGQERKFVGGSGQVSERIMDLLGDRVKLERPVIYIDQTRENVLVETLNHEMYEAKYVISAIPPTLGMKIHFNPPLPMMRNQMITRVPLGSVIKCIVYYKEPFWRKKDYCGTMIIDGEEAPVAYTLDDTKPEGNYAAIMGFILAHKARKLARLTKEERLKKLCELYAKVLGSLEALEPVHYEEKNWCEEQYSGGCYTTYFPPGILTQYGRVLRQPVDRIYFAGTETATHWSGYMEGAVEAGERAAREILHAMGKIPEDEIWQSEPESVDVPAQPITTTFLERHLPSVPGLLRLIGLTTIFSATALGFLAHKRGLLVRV
Description: Inhibition of recombinant MAO-B (unknown origin) incubated for 60 mins by luminescence based flow cytometry

NCI-H460 = experiment: cells; conditions: Homo sapiens, NCI-H460, 72 h
Description: Antiproliferative activity against human NCI-H460 cells assessed as inhibition of cell growth incubated for 72 hrs by CCK-8 assay

[7] = Volume of distribution in steady state in Sprague-Dawley rat at 3 mg/kg,iv by LC-MS/MS analysis; assay type: ADME, organism-based; conditions: in vivo, read-out: Vdss
A549 [8] = experiment: Antiproliferative activity against human A549 cells assessed as reduction of Edu positive cells at 2 uM incubated for 48 hrs by EdU incorporation based laser scanning microscopic analysis; assay type: functional, cell-based
A549 [9] = experiment: Inhibition of colony formation in human A549 cells at 2 uM; assay type: functional, cell-based
[10] = Clearance in Sprague-Dawley rat at 3 mg/kg,iv by LC-MS/MS analysis; assay type: ADME, organism-based; conditions: in vivo
[11] = AUC (0-t) in Sprague-Dawley rat at 10 mg/kg,po by LC-MS/MS analysis; assay type: ADME, organism-based; set-up: dose 10 mg/kg, route po; conditions: in vivo
A549 [12] = experiment: Induction of apoptosis in human A549 cells assessed as downregulation of BCL-2 at 1 to 4 uM incubated for 72 hrs by Western blotting assay; assay type: functional, cell-based; conditions: dose 1-4 µM
CYP2D6 = CYP2D6 (Homo sapiens, UniProt P10635); experiment: Inhibition of CYP2D6 (unknown origin) at 10 uM incubated for 20 mins in presence of NADPH by LC/MS/MS analysis relative to control; assay type: ADME
[13] = molecular target: T1, Lysine-specific histone demethylase 1A; experiment: Binding affinity to LSD1 in human A549 cells assessed as increase in thermal stability at 10 uM incubated for 1 hr by cellular thermal shift assay; assay type: cell-based
[14] = Oral bioavailability in Sprague-Dawley rat at 10 mg/kg by LC-MS/MS analysis; assay type: ADME, organism-based; conditions: in vivo
[15] = AUC (0-t) in Sprague-Dawley rat at 3 mg/kg,iv by LC-MS/MS analysis; assay type: ADME, organism-based; set-up: dose 3 mg/kg, route iv; conditions: in vivo
CYP2C9 = CYP2C9 (Homo sapiens, UniProt P11712); experiment: Inhibition of CYP2C9 (unknown origin) at 10 uM incubated for 20 mins in presence of NADPH by LC/MS/MS analysis relative to control; assay type: ADME
A549 [16] = experiment: Antitumor activity against human A549 cells xenografted in BALB/c mouse assessed as chromatin condensation at 20 mg/kg,ip administrated for 15 days; assay type: functional, organism-based; conditions: time 15.0 day
A549 [17] = experiment: Antitumor activity against human A549 cells xenografted in BALB/c mouse assessed as reduction in KI67 positive cells at 20 mg/kg,ip administrated for 15 days; assay type: functional, organism-based; conditions: time 15.0 day
A549 [18] = experiment: Antitumor activity against human A549 cells xenografted in BALB/c mouse assessed as decrease in tumor cell density at 10 mg/kg,ip administrated for 15 days; assay type: functional, organism-based; conditions: time 15.0 day
[19] = molecular target: T1, Lysine-specific histone demethylase 1A
Description: Inhibition of recombinant human LSD1 using fluorometric substrate by HRP based fluorimeter microplate reader assay

[20] = AUC (0-infinity) in Sprague-Dawley rat at 3 mg/kg,iv by LC-MS/MS analysis; assay type: ADME, organism-based; set-up: dose 3 mg/kg, route iv; conditions: in vivo
A549 [21] = experiment: Induction of apoptosis in human A549 cells at 4 uM incubated for 48 hrs by Annexin V-FITC/PI staining based flow cytometry method; assay type: functional
[22] = molecular target: Voltage-gated inwardly rectifying potassium channel KCNH2 (Homo sapiens, UniProt Q12809); experiment: Inhibition of human ERG stably expressed in CHO cells by patch clamp assay; assay type: toxicity, cell-based
Voltage-gated inwardly rectifying potassium channel KCNH2, sequence (Q12809 whole entry): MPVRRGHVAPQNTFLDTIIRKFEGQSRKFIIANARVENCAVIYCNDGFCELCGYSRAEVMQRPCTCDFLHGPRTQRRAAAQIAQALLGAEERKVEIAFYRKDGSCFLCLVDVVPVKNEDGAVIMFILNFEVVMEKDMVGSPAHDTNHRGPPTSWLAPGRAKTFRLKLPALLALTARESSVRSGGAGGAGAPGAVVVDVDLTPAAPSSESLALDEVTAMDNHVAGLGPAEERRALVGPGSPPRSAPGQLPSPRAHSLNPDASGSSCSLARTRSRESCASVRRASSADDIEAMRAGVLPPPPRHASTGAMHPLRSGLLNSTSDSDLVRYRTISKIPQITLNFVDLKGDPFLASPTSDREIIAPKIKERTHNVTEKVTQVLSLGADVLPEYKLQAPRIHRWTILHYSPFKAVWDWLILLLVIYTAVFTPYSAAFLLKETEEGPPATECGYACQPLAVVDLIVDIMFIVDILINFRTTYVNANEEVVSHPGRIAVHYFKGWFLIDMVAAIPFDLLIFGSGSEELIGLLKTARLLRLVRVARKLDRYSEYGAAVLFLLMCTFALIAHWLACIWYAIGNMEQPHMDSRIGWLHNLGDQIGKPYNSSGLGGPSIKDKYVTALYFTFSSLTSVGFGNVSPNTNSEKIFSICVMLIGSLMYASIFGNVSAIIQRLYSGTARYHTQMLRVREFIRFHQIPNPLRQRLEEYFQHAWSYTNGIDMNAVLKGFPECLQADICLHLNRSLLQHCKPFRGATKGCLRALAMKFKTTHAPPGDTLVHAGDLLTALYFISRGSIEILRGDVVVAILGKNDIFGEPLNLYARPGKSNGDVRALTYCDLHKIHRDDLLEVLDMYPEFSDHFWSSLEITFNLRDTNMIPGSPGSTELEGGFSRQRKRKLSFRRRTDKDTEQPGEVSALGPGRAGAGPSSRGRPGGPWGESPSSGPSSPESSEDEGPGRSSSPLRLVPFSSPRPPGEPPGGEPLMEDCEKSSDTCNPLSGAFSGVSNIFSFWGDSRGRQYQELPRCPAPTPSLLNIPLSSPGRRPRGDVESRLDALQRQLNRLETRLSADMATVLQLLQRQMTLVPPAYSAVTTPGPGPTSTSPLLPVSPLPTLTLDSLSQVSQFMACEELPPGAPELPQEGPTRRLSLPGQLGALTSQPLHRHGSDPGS

CYP2C19, sequence (P33261 whole entry): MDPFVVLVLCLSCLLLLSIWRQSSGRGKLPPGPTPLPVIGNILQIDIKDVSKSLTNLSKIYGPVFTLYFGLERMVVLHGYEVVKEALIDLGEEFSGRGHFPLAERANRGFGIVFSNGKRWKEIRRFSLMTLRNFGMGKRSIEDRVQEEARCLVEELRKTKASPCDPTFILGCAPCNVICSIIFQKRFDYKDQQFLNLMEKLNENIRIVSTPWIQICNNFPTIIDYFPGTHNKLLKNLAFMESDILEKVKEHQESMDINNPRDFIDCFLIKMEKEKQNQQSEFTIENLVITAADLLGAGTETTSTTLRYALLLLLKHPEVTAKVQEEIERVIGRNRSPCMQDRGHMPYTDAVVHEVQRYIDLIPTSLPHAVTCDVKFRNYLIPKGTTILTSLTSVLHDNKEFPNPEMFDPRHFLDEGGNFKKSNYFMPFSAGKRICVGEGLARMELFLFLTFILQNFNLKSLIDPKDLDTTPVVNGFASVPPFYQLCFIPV
CYP2C9, sequence (P11712 whole entry): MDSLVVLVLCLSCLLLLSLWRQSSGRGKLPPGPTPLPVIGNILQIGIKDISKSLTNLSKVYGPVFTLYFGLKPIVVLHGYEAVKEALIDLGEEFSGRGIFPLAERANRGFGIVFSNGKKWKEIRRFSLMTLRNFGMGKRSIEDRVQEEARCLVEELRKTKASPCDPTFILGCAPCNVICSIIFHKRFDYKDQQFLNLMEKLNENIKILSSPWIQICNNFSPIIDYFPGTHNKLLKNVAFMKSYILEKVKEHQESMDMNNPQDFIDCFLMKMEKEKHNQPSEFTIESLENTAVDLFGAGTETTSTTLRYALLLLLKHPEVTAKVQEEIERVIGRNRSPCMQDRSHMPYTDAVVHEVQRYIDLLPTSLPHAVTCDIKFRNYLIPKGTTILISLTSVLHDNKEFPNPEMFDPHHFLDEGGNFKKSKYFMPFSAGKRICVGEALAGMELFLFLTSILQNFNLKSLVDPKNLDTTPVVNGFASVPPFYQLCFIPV
CYP2D6, sequence (P10635 whole entry): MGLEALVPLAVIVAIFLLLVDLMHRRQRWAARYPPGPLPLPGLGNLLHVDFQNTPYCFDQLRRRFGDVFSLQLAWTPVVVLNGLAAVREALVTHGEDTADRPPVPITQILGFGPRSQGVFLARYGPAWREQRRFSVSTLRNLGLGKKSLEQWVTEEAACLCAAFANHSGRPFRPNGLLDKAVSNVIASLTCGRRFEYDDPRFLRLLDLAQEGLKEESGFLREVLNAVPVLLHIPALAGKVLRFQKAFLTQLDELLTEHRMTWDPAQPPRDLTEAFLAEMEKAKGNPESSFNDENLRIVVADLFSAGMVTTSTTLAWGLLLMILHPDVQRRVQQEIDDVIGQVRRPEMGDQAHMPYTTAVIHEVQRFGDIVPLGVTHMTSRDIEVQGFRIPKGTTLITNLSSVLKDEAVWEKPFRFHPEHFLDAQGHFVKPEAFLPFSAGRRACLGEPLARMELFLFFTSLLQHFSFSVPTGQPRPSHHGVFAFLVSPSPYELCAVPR

- inhibition [1]: Dose-Dependent Effect
- Ki [4]: 155 nM
- inhibition at 20 min, 10 µM (CYP2C19): 17.5%
- IC50 at 72 h (in vitro): 3100 nM
- IC50 [6]: 720 nM
- IC50 (NCI-H460): 3800 nM
- Vd [7]: 17.4 L/kg
- clearance [10]: 35.5 mL/min/kg
- AUC(0-t) [11]: 329 ng·h/mL
- inhibition at 20 min, 10 µM (CYP2D6): 2.9%
- Activity [13]: Active
- bioavailability [14]: 7.49%
- AUC(0-t) [15]: 1320 ng·h/mL
- inhibition at 20 min, 10 µM (CYP2C9): 47.7%
- IC50 [19]: 50 nM
- AUC(0-inf) [20]: 1450 ng·h/mL
SMILES: Cc1ccc(-c2cc3c(cc2-c2ccc(C#N)cc2)c(C(=O)N2CCC(N)CC2)cn3S(=O)(=O)c2ccc(F)cc2)cc1
- Activity (A549 [2]): Active
- Activity [3]: Non-Toxic
- Activity (A549 [5]): Active
- Activity (A549 [8]): Active
- inhibition (A549 [9]): Active
- Activity (A549 [12]): Dose-Dependent Effect
- Activity (A549 [16]): Active
- Activity (A549 [17]): Active
- Activity (A549 [18]): Active
- Activity (A549 [21]): 52.5%
- IC50 [22]: 5110 nM

Source: ChEMBL document CHEMBL5352388 (Eur J Med Chem, 2022)
